# Measurements taken from patent US20260240832A1, “USE OF NITROXOLINE COMPOUND IN ENHANCING EFFECT OF ANTIBACTERIAL AGENT” (Jiangsu Yahong Meditech Co., Ltd., priority 2022, published 2026).
# Like-named read-outs stand apart in the source and are kept apart here.
# Assays:
# Type in all cases: cell-based
# [1] = test system: drug-resistant Escherichia coli 1864; assay: MIC of antibiotics against drug-resistant Escherichia coli II (resistance profile of the strain)
# Excerpt: (§1) 1 strain of drug-resistant Escherichia coli II, namely drug-resistant Escherichia coli 1864, is provided by the School of Pharmacy of Fudan University. This strain is resistant to fluoroquinolone antibiotics (such as levofloxacin), non-fluoroquinolone antibiotics (such as nalidixic acid, nemofloxacin), aminoglycoside antibiotics (such as gentamicin), glycopeptide antibiotics (such as vancomycin) and carbapenem antibiotics (such as meropenem).
# [2] = test system: drug-resistant Escherichia coli I (a strain resistant to carbapenem antibiotics); assay: Chessboard microbroth dilution MIC/FIC, compound A in combination with meropenem; conditions: for MIC: Escherichia coli, read-out: Compound A MIC alone; for Compound A MIC in combination: with meropenem
# Excerpt: (§2) This experiment is designed to determine the minimum inhibitory concentration (MIC) of compound A in combination with meropenem against drug-resistant Escherichia coli I (a strain resistant to carbapenem antibiotics) and drug-resistant Escherichia coli II (a strain resistant to fluoroquinolone antibiotics, non-fluoroquinolone antibiotics, aminoglycoside antibiotics, glycopeptide antibiotics and carbapenem antibiotics), and to calculate the fractional inhibitory concentration (FIC) index.
# 3 strains of drug-resistant Escherichia coli I, namely drug-resistant Escherichia coli 18-W09-093, drug-resistant Escherichia coli 18-W37-025, and drug-resistant Escherichia coli 18-W37-032, are provided by Shanghai Junji Medical Laboratory Co., Ltd. These 3 strains are all resistant to carbapenem antibiotics (e.g., meropenem).
# (§3) According to the recommendation of the Clinical and Laboratory Standards Institute (CLSI), the microbroth dilution method designed by the chessboard method was used to determine the minimum inhibitory concentration (MIC) of compound A in combination with meropenem against the above strains, and the fractional inhibitory concentration (FIC) index was calculated.
# (§4) Compound A was dissolved in dimethyl sulfoxide to obtain a stock solution I with a concentration of 1280 mg/L. The stock solution I was diluted to 512 mg/L with sterile water to obtain a gradient dilution first tube solution I. The gradient dilution first tube solution I was subjected to 1:1 gradient dilution with sterile water to obtain a working solution I with a gradient range of 512 to 0.25 mg/L.
# (§5) Meropenem was dissolved in sterile water to obtain a stock solution II with a concentration of 5120 mg/L. The stock solution II was diluted to 1024 mg/L with sterile water to obtain a gradient dilution first tube solution II. The gradient dilution first tube solution II was subjected to 1:1 gradient dilution with sterile water to obtain a working solution II with a gradient range of 1024 to 0.5 mg/L.
# (§6) According to the method in Example 1, a drug sensitive plate was prepared with working solution I and working solution II, and the specific process will not be repeated here.
# (§7) (2) The culture medium of the bacterial solution: Cation-Adjusted Mueller-Hinton Broth (CAMHB), a product of BBL, USA, batch number 9015952.
# (§8) (3) Formulation method of bacterial solution: According to the direct colony suspension method, the test bacteria cultured overnight were prepared into a 0.5 McFarland turbidity tube using physiological saline. Then, the resulting solution was dilute 100 times with the above culture medium. 100 μL of the resulting bacterial solution was mixed well with the solution (100 μL) in each well of the drug sensitivity plate, and the final inoculation amount was 10^5 CFU/mL.
# (§9) (4) Culture conditions: Culturing at 35±2° C. for 20 hours in air.
# (§10) (1) The experimental results were determined according to the standard of CLSI 2019 M100 29th edition.
# (§11) wherein: FIC≤0.5 indicates synergistic effect; 0.5<FIC≤1.0 indicates additive effect; 1<FIC≤2.0 indicates irrelevant effect; and FIC>2 indicates antagonistic effect.
# [3] = test system: carbapenem-resistant Acinetobacter baumannii; assay: as above; conditions: for MIC: Acinetobacter baumannii, read-out: Compound A MIC alone; for Compound A MIC in combination: with meropenem
# Excerpt: This experiment is designed to determine the minimum inhibitory concentration (MIC) of compound A in combination with meropenem against carbapenem-resistant Acinetobacter baumannii and to calculate the fractional inhibitory concentration (FIC) index.
# Test bacteria: 10 strains of carbapenem-resistant Acinetobacter baumannii are clinically isolated strains, and are provided by Shanghai Junji Medical Laboratory Co., Ltd.
# as §3
# Compound A was dissolved in dimethyl sulfoxide to obtain a stock solution I with a concentration of 51200 mg/L. The stock solution I was subjected to 1:1 gradient dilution with dimethyl sulfoxide to obtain a dilution solution with a concentration range of 51200 to 25 mg/L. The corresponding concentrations were added to sterile water for 100-fold dilution to obtain working solution I with a concentration range of 512 to 0.25 mg/L.
# Meropenem was dissolved in sterile water to obtain a stock solution with a concentration of 5120 mg/L. The […] stock solution was subjected to 1:1 gradient dilution with sterile water to obtain a working solution II with a concentration range of 512 to 0.25 mg/L.
# as §6, §7, §8, §9
# (1) The experimental results were determined according to the standard of CLSI 2020 M100 30th edition.
# as §11
# [4] = test system: drug-resistant Escherichia coli II (drug-resistant Escherichia coli 1864); assay: as above
# Excerpt: as §2, §1, §3, §4, §5, §6, §7, §8, §9, §10, §11
# [5] = drug-resistant Escherichia coli 1864, read-out: MIC
# [6] = strain 18-W09-093, compound A + meropenem
# [7] = strain 18-W37-025, compound A + meropenem
# [8] = strain 18-W37-032, compound A + meropenem
# [9] = strain No. 1, compound A + meropenem
# [10] = strain No. 2, compound A + meropenem
# [11] = strain No. 3, compound A + meropenem
# [12] = strain No. 4, compound A + meropenem
# [13] = strain No. 5, compound A + meropenem
# [14] = strain No. 6, compound A + meropenem
# [15] = strain No. 7, compound A + meropenem
# [16] = strain No. 8, compound A + meropenem
# [17] = strain No. 9, compound A + meropenem
# [18] = strain No. 10, compound A + meropenem
# [19] = strain 1864, compound A + meropenem
molecule,measurement,setting,value
CCn1cc(C(=O)O)c(=O)c2ccc(C)nc21 [Nalidixic acid],MIC,[1]; Escherichia coli,> 64 µg/mL
COc1c(N2C[C@@H](C)C[C@H](N)C2)ccc2c(=O)c(C(=O)O)cn(C3CC3)c12 [Nemofloxacin],MIC,[1]; [5],> 64 µg/mL
Gentamycin,MIC,[1]; drug-resistant Escherichia coli 1864,64 µg/mL
CN[C@H](CC(C)C)C(=O)N[C@H]1C(=O)N[C@@H](CC(N)=O)C(=O)N[C@H]2C(=O)N[C@H]3C(=O)N[C@H](C(=O)N[C@H](C(=O)O)c4cc(O)cc(O)c4-c4cc3ccc4O)[C@H](O)c3ccc(c(Cl)c3)Oc3cc2cc(c3O[C@@H]2O[C@H](CO)[C@@H](O)[C@H](O)[C@H]2O[C@H]2C[C@](C)(N)[C@H](O)[C@H](C)O2)Oc2ccc(cc2Cl)[C@H]1O [Vancomycin],MIC,[1]; Escherichia coli,> 64 µg/mL
C[C@H]1COc2c(N3CCN(C)CC3)c(F)cc3c(=O)c(C(=O)O)cn1c23 [Levofloxacin],MIC,[1]; [5],32 µg/mL
"O=[N+]([O-])c1cc(Cl)c2cccnc2c1O [Compound A, 5-chloro-7-nitro-8-hydroxyquinoline]",MIC,[2]; strain 18-W09-093,32 µg/mL
same,MIC,[2]; strain 18-W37-025,32 µg/mL
same,MIC,[2]; strain 18-W37-032,32 µg/mL
same,effect of the combination (summary of Table 4),"[2]; compound A + meropenem, drug-resistant Escherichia coli I",synergistic effect (FIC≤0.5 indicates synergistic effect)
same,change of the MIC of meropenem by the combination,"[2]; compound A + meropenem, drug-resistant Escherichia coli I and II",significantly reduce
same,FIC index,[2]; [6],0.258
same,Results,[2]; [6],Synergistic
same,Compound A MIC in combination,[2]; strain 18-W09-093,8 mg/L
same,FIC index,[2]; [7],0.258
same,Results,[2]; [7],Synergistic
same,Compound A MIC in combination,[2]; strain 18-W37-025,8 mg/L
same,FIC index,[2]; [8],0.281
same,Results,[2]; [8],Synergistic
same,Compound A MIC in combination,[2]; strain 18-W37-032,8 mg/L
same,MIC,[3]; strain No. 1,32 µg/mL
same,MIC,[3]; strain No. 2,16 µg/mL
same,MIC,[3]; strain No. 3,16 µg/mL
same,MIC,[3]; strain No. 4,16 µg/mL
same,MIC,[3]; strain No. 5,16 µg/mL
same,MIC,[3]; strain No. 6,16 µg/mL
same,MIC,[3]; strain No. 7,16 µg/mL
same,MIC,[3]; strain No. 8,8 µg/mL
same,MIC,[3]; strain No. 9,8 µg/mL
same,MIC,[3]; strain No. 10,16 µg/mL
same,change of the MIC of meropenem by the combination,[3]; compound A + meropenem,significantly reduce
same,effect of the combination (summary of Table 5),[3]; compound A + meropenem,synergistic effect (FIC≤0.5 indicates synergistic effect)
same,FIC index,[3]; [9],0.127
same,Results,[3]; [9],Synergistic
same,Compound A MIC in combination,[3]; strain No. 1,0.06 mg/L
same,FIC index,[3]; [10],0.129
same,Results,[3]; [10],Synergistic
same,Compound A MIC in combination,[3]; strain No. 2,0.06 mg/L
same,FIC index,[3]; [11],0.129
same,Results,[3]; [11],Synergistic
same,Compound A MIC in combination,[3]; strain No. 3,0.06 mg/L
same,FIC index,[3]; [12],0.129
same,Results,[3]; [12],Synergistic
same,Compound A MIC in combination,[3]; strain No. 4,0.06 mg/L
same,FIC index,[3]; [13],0.129
same,Results,[3]; [13],Synergistic
same,Compound A MIC in combination,[3]; strain No. 5,0.06 mg/L
same,FIC index,[3]; [14],0.129
same,Results,[3]; [14],Synergistic
same,Compound A MIC in combination,[3]; strain No. 6,0.06 mg/L
same,FIC index,[3]; [15],0.254
same,Results,[3]; [15],Synergistic
same,Compound A MIC in combination,[3]; strain No. 7,0.06 mg/L
same,FIC index,[3]; [16],0.133
same,Results,[3]; [16],Synergistic
same,Compound A MIC in combination,[3]; strain No. 8,0.06 mg/L
same,FIC index,[3]; [17],0.133
same,Results,[3]; [17],Synergistic
same,Compound A MIC in combination,[3]; strain No. 9,0.06 mg/L
same,FIC index,[3]; [18],0.129
same,Results,[3]; [18],Synergistic
same,Compound A MIC in combination,[3]; strain No. 10,0.06 mg/L
same,MIC,"[4]; Escherichia coli, strain 1864, read-out: Compound A MIC alone",4 µg/mL
same,effect of the combination (summary of Table 4),"[4]; compound A + meropenem, drug-resistant Escherichia coli II",synergistic effect (FIC≤0.5 indicates synergistic effect)
same,FIC index,[4]; [19],0.14
same,Results,[4]; [19],Synergistic
same,Compound A MIC in combination,"[4]; strain 1864, with meropenem",0.5 mg/L
